As a reminder, the IC50 is the concentration that gives 50% inhibition. Read a high IC50 as weaker potency.

Sequence of Human factor D (P00746 26-253): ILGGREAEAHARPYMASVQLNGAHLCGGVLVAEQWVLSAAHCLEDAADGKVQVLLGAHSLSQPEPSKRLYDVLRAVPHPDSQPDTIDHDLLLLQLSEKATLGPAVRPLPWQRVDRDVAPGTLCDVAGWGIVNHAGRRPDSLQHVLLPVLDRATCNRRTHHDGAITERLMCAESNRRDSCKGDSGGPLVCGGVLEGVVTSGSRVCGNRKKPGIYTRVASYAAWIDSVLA

The target of the assay is Human factor D (Homo sapiens (Human), UniProt P00746). The assay can be described thus: Human Factor D Assay. Type of assay: biochemical. The following applies: human factor D 80 nM, substrate Z-L-Lys-SBzl, DTNB, OD405. Summed up:
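Serum-purified human factor D (80 nM final) preincubated with compound 5 min at room temperature in 50 mM Tris, 1M NaCl, pH 7.5. Z-L-Lys-SBzl and DTNB added at 10 μM final each; OD405 followed kinetically over 30 min. IC50 by non-linear regression of percent inhibition.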
`NC(=O)c1nn(CC(=O)N2C[C@H](F)C[C@H]2C(=O)Nc2cccc(-c3cc(OC(F)(F)F)ccc3Cl)c2F)c2ccccc12` [Compound 120, 1-(2-((2S,4R)-2-(2′-chloro-2-fluoro-5′-(trifluoromethoxy)biphenyl-3-ylcarbamoyl)-4-fluoropyrrolidin-1-yl)-2-oxoethyl)-1H-indazole-3-carboxamide]: the IC50 was less than 1000 nM. With `NC(=O)c1cn(CC(=O)N2C[C@H](F)C[C@H]2c2nc3cc(-c4ccccc4Cl)ccc3[nH]2)c2ccccc12` [Compound 121, 1-(2-((2S,4R)-2-(5-(2-chlorophenyl)-1H-benzo[d]imidazol-2-yl)-4-fluoropyrrolidin-1-yl)-2-oxoethyl)-1H-indole-3-carboxamide], the concentration for half-maximal inhibition (IC50) was more than 10000 nM. The value for `NC(=O)c1nn(CC(=O)N2C[C@H](F)C[C@H]2C(=O)Nc2cccc(-c3ccc4[nH]cnc4c3Cl)c2F)c2ccccc12` [Compound 122, 1-(2-((2S,4R)-2-(3-(4-chloro-1H-benzo[d]imidazol-5-yl)-2-fluorophenylcarbamoyl)-4-fluoropyrrolidin-1-yl)-2-oxoethyl)-1H-indazole-3-carboxamide] was less than 1000 nM.

Compound `CC(=O)c1cn(CC(=O)N2C[C@H](F)C[C@H]2C(=O)Nc2cccc(Br)n2)c2ccc(C3(NC(=O)OC(C)(C)C)CC3)cc12` [Compound 123, tert-butyl 1-(3-acetyl-1-(2-((2S,4R)-2-(6-bromopyridin-2-ylcarbamoyl)-4-fluoropyrrolidin-1-yl)-2-oxoethyl)-1H-indol-5-yl)cyclopropylcarbamate] came in with a half-inhibitory concentration (IC50) of less than 1000 nM. Under `CC(=O)c1cn(CC(=O)N2C[C@H](F)C[C@H]2C(=O)Nc2cccc(-c3ccccc3Cl)c2F)c2c(C#Cc3ncc(F)cn3)cccc12` [Compound 124, (2S,4R)-1-(2-(3-acetyl-7-((5-fluoropyrimidin-2-yl)ethynyl)-1H-indol-1-yl)acetyl)-N-(2′-chloro-2-fluorobiphenyl-3-yl)-4-fluoropyrrolidine-2-carboxamide] stands less than 1000 nM.

These data come from patent US9758537B2 (Achillion Pharmaceuticals, Inc., priority 2014, dated 2017).
